Results from US20050256174A1, “Raf kinase inhibitors” (priority 1998, published 2005).

COC(=O)c1cc(C(C)C)sc1NC(=O)Nc1ccc(C)cc1 [Example 29, 5-Isopropyl-2-(3-p-tolyl-ureido)-thiophene-3-carboxylic acid methyl ester]
melting point: 49 to 51 °C

COC(=O)c1cc(C(C)C)sc1NC(=O)Nc1ccc(C)s1 [Example 30, 5-Isopropyl-2-[3-(5-methyl-thiophen-2-yl)-ureido]-thiophene-3-carboxylic acid methyl ester]
melting point: 70 to 73 °C

COC(=O)c1cc(C(C)(C)C)sc1NC(=O)Nc1ccccc1 [Example 27, 5-tert-Butyl-2-(3-phenyl-ureido)-thiophene-3-carboxylic acid methyl ester]
melting point: 80 to 82 °C

CCc1nnc(NC(=O)Nc2sc(C(C)(C)C)cc2C(=O)OC)s1 [Example 28, 5-tert-Butyl-2-(3-(5-ethyl-[1,3,4]thiadiazol-2-yl)-ureido)-thiophene-3-carboxylic acid methyl ester]
melting point: 206 to 208 °C

COC(=O)c1cc(C(C)(C)C)sc1NC(=O)Nc1ccc(C)cc1 [Example 26, 5-tert-Butyl-2-(3-p-tolyl-ureido)-thiophene-3-carboxylic acid methyl ester]
melting point: 109 to 111 °C

COC(=O)c1sc(C(C)C)cc1NC(=O)Nc1ccc(C)cc1 [Example 1, 5-Isopropyl-3-(3-p-tolyl-ureido)-thiophene-2-carboxylic acid methyl ester]
melting point: 93 to 95 °C
